Experimental data as given in patent US10174307B2, “Performance enhancing genetic variants of E. coli” (priority 2014, dated 2019).
Values after ≈ are worked out from the molar mass of the structure shown.

Tested on: E. coli
Experiment: Erythromycin MIC quoted in legend of growth assay with and without erythromycin
Format: cell-based
Conditions: Escherichia coli
Protocol: E. coli MG1655 was used as wild-type. The ALE selected rpoBE564V and rpoBE672K knock in strains were previously constructed by allelic replacement^7. To generate additional variants of […] and 672 positions, MAGE was performed on the wild-type strain by first transformation of recombineering plasmid pKD46^46, then inactivation of mutS with two nonsense mutations at residues 189 and 191 using an oligo (mutS_MUT). […] To perform each cycle of MAGE, the 1-Red system was induced with 0.5%-arabinose 45 minutes prior to generation of electrocompetent cells and oligo. Batch cultures were done in flask with M9 minimal media and 4 g/L of glucose at 37° C. or LB rich media. Glucose limited chemostats were carried out in a Bioflo 110 fermentor (New Brunswick Scientific, NJ). Glucose supplemented M9 was added to the reactor at 0.31 and 0.44 h^−1 dilution rates controlled by a peristaltic pump. Steady state was achieved after 3-5 residence times and was verified by biomass measurements. Phenotypic tests were performed by inoculation of media with an overnight pre-culture of glucose M9 media for all cases. Erythromycin was added to the media to the indicated concentration. The pH of M9 was adjusted to the indicated value with 6M HCl. Different substrates and mixtures were added to M9 to test growth in the indicated conditions. […]

Compound `CC[C@H]1OC(=O)[C@H](C)[C@@H](O[C@H]2C[C@@](C)(OC)[C@@H](O)[C@H](C)O2)[C@H](C)[C@@H](O[C@@H]2O[C@H](C)C[C@H](N(C)C)[C@H]2O)[C@](C)(O)C[C@@H](C)C(=O)[C@H](C)[C@@H](O)[C@]1(C)O` [erythromycin] has an MIC of 512 to 1020 µg/mL (≈ 698 to 1400 µM).
